Structures are written as SMILES. Where two headings read alike, the source gives them in different places.

The target in assay [1] is N-type calcium channel (α1B (Cav2.2), β3 and α2δ subunits) in stable HEK cell line (Homo sapiens (Human), UniProt Q00975). The experiment in a line: Functional assay (FDSS calcium mobilization): antagonism of N-type calcium channel. Type of assay: cell-based. The following applies: for IC50: KCl (50 mM) depolarization, six-point concentration-response; for inhibition at 0.33 µM: HEK293; for inhibition at 0.33 µM / % Inhibition (%) at 0.33 μM: FDSS, 0.33 μM compound. How it is done:
A stable cell line (HEK parent) co-expressing the α1B (Cav2.2), β3 and α2δ subunits of the N-type calcium channel subunits was used. These cells were routinely grown as monolayers in low glucose-containing Dulbecco's Modified Eagle Medium supplemented with 10% FBS, 2 mM L-glutamine, 100 I.U./mL penicillin, 100 μg/mL streptomycin, 400 μg/mL G418 and 200 μg/mL Zeocin (split ratio=1:5). Cells were maintained in 5% CO2 at 37° C. Compounds of Formula (I) were prepared as 10 mM stocks in DMSO from neat compound, if available. Otherwise, the 5 or 10 mM DMSO stock solutions provided in-house were used.
Calcium mobilization responses to KCl depolarization were evaluated by measuring the intensity of calcium-mediated fluorescent signal in the presence of BD Calcium Assay Dye (BD Biosciences, Franklin Lakes, N.J., U.S.A.), utilizing a Functional Drug Screening System (FDSS) by Hamamatsu Corporation (Bridgewater, N.J. U.S.A.).
Twenty-four hr prior to assay, cells were seeded in clear-base poly-D-lysine-coated 384-well plates (BD Biosciences) at a density of 5,000 cells per well in culture medium and grown overnight in 5% CO2 at 37° C. On the day of assay, growth media were removed, and cells were loaded with BD calcium assay dye (BD Biosciences) for 35 min at 37° C. under 5% CO2 and then for 25 min at room temp. Utilizing the FDSS, cells were exposed to representative compounds of Formula (I) at varying concentrations, and intracellular calcium was measured for 5 min prior to the addition of 50 mM KCl for an additional 3 min of measurement.
IC50 values for representative compounds of Formula (I) were determined from six-point concentration-response experiments and represent the concentration of said compound required to inhibit 50% of the maximal response. Maximal fluorescence intensity (FI) achieved upon addition of 50 mM KCl was exported from the FDSS software and further analyzed using GraphPad Prism 3.02 (Graph Pad Software Inc., San Diego, Calif., U.S.A.). Data were normalized to the maximum average counts from quadruplicate wells for each condition in the presence of 50 mM KCl and to the minimum average counts in the presence of buffer. Theoretical curves were generated using nonlinear regression curve-fitting analysis of either sigmoidal concentration-response or sigmoidal concentration-response (variable slope), and the IC50 values with the best-fit curve determined by GraphPad Prism were reported.

The target of the next assay is N-type calcium channel (Homo sapiens (Human), UniProt Q00975). The experiment in a line: Automated electrophysiology assay (QPatch-HT whole-cell patch clamp). Type of assay: cell-based. How it is done: Cells were grown in T175 flasks to 50%-90% confluence. At the time of use, cells were enzymatically treated with Detachin (Genlantis, San Diego, Calif. USA), centrifuged, rinsed, and resuspended in 293 SFM II media (Life Technologies, Grand Island, N.Y. U.S.A.) supplemented with 25 mM HEPES (Sigma-Aldrich, St. Louis, Mo. U.S.A.) to a concentration of 2-3×10^6 cells/mL. Cells were added to the automated cell preparation station on the QPatch-HT (Sophion Biosciences, North Brunswick, N.J. U.S.A.), and following a 10- to30-min recovery period with gentle stirring, the assay protocol was initiated. During the automated cell preparation, cells were collected, centrifuged and resuspended in an extracellular (EC) solution containing 132 mM NaCl, 1.8 mM CaCl2, 5.4 mM KCl, 0.8 mM MgCl2, 10 mM glucose, and 10 mM HEPES (pH=7.4), adjusted with sucrose to approximately 315 m0sm. The QPlate was primed with an intracellular solution containing 135 mM CsCl, 10 mM EGTA, 4 MgATP, 0.3 NaGTP, and 20 mM HEPES (pH=7.2), adjusted to approximately 290 m0sm with deionized water and the EC solution. Cells were added to the prepared QPlate wells by robotic pipettes of the QPatch-HT.
For cells determined to be in stable whole-cell patch clamp, the EC solution was replaced with a barium (Ba)/triethylammonium (TEA) solution containing 140 mM TEA-Cl, 10 mM BaCl2, 0.8 mM MgCl2, 10 mM glucose and 10 mM HEPES (pH=7.4). High (40 mM) BaCl2 concentrations were made with adjustments to TEA-Cl (90 mM) to maintain the osmolarity. From a resting potential of −80 mV, a train of depolarizing pulses (15 pulses at 5 Hz, +20 mV) was delivered to the cell once every 30 sec for […], and the resulting currents were measured during a control period (no compound). This protocol was repeated for each subsequent addition of control buffer with or without compound (three periods total, each with four trains). The current generated in the 1st and 15th pulses of the last train of each period in the presence of each drug concentration was normalized to the current generated during the control period at the respective pulses (representing low- and high-frequency stimulation, respectively). Data from both the second and third drug application periods were analyzed for each cell. A final addition of Ba/TEA solution containing 60-100 μM CdCl2 was made to block all N-type current and to “zero” the currents for each cell. All buffer/compound additions were made using a “spitting” feature of the QPatch-HT, which added three repetitions of 5 μL solution at the beginning of each recording period.
To examine closed-state inactivation, cells were subjected to a channel-activating 50-msec depolarizing step pulse from −80 to +10 mV, followed by a 5-sec nonactivating step to voltages ranging from −130 to −60 mV in 10 mV increments and then a 50-ms step from −80 to +10 mV to assess the remaining current. Currents from the activating voltage pulse were normalized to the peak value of the test pulse following the −130 mV step and fit to a Boltzman equation to obtain the V1/2. Roscovitine (Sigma-Aldrich) was prepared as a 100 mM stock in dimethyl sulfoxide and diluted to the indicated working concentrations. […]. Compounds of Formula (I) were diluted first into dimethyl sulfoxide and then into 10% pluronic F-127 in water (Life Technologies), sonicated for 1 min and diluted into EC buffer. Vehicle controls were run in parallel in all experiments.
Unless otherwise indicated, statistics for comparing among electrophysiological results utilized a one-way analysis of variance with Fisher's least squares determination test for pair-wise comparison.
Background: The patch-clamp technique gives a direct electrical read-out from membranes.

[2] abbreviates: high-frequency stimulation (15th pulse of train, 5 Hz), read-out: QPatch at High Frequency % Inhibition at 0.1 μM.
Where [3] appears, read: low-frequency stimulation (1st pulse of train), read-out: QPatch at Low Frequency % Inhibition at 0.1 μM.

Chain of N-type calcium channel (Q00975 whole entry): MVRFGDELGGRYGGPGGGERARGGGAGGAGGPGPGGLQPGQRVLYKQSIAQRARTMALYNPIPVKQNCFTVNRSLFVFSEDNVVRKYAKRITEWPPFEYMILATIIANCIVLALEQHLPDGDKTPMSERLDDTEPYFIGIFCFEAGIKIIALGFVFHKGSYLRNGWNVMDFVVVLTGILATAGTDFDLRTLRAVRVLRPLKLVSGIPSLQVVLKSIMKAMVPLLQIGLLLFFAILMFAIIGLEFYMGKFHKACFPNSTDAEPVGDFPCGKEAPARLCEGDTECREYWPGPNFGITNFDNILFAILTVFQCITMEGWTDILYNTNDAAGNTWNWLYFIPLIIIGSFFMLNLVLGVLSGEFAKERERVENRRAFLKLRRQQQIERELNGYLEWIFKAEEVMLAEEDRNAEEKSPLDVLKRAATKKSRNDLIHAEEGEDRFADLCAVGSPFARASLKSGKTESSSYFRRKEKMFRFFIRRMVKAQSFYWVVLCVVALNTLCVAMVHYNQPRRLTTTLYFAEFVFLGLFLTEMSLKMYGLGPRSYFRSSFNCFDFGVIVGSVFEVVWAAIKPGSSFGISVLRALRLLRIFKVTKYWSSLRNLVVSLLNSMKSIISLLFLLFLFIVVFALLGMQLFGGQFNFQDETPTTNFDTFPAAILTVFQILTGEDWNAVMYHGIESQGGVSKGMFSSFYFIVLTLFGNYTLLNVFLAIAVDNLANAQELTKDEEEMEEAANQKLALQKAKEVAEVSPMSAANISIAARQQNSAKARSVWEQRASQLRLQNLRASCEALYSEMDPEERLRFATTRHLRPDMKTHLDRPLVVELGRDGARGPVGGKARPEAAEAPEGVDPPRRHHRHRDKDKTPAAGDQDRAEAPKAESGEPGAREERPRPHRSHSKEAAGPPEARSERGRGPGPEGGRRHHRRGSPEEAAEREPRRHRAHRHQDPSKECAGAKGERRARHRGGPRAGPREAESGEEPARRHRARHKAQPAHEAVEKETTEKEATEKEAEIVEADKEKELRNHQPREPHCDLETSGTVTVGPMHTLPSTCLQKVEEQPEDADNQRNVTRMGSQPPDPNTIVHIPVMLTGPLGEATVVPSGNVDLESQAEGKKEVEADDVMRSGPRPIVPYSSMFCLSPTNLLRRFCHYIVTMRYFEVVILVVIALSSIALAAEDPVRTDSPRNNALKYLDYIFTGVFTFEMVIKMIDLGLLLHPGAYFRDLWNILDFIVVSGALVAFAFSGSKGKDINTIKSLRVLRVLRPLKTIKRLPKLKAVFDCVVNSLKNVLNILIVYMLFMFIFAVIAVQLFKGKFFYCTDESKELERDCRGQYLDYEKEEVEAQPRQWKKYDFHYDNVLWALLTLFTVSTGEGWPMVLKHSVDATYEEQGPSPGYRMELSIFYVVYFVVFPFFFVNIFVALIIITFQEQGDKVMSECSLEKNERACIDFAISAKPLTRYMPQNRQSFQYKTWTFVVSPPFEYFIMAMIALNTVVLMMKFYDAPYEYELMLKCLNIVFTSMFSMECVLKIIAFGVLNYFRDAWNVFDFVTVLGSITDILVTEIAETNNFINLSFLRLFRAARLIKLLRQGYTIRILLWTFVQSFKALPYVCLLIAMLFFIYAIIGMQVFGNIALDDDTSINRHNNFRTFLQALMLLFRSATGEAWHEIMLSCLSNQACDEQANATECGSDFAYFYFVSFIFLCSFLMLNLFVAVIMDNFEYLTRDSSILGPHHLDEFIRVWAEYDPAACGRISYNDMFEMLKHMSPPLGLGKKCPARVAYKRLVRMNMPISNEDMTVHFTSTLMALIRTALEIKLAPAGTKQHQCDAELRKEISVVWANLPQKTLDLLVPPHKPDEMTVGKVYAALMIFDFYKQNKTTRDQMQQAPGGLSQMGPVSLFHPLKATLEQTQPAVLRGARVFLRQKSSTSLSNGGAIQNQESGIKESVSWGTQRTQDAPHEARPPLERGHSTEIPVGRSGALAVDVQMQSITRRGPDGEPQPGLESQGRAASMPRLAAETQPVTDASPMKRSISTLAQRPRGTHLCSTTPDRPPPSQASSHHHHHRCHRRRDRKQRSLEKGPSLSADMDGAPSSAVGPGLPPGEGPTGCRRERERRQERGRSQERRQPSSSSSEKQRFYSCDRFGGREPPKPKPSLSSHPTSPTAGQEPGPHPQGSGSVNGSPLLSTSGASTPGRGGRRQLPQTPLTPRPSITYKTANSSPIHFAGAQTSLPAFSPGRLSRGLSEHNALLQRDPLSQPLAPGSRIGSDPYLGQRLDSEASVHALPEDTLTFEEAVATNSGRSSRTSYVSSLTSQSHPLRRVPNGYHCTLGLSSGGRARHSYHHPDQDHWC
Chain of N-type calcium channel (P54284 whole entry partner): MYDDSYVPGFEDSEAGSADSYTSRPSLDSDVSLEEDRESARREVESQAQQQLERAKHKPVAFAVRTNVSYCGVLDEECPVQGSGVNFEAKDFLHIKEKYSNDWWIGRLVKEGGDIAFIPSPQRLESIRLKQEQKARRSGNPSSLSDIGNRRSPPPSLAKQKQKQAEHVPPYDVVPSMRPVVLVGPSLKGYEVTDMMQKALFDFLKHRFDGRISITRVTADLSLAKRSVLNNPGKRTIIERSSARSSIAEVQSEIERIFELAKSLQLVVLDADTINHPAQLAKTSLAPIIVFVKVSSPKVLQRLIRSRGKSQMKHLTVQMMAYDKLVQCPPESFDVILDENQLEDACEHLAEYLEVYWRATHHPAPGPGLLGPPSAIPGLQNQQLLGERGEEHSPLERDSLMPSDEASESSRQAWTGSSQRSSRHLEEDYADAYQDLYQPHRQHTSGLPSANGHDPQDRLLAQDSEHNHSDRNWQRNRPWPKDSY
Chain of N-type calcium channel (P54289 25-1103 partner): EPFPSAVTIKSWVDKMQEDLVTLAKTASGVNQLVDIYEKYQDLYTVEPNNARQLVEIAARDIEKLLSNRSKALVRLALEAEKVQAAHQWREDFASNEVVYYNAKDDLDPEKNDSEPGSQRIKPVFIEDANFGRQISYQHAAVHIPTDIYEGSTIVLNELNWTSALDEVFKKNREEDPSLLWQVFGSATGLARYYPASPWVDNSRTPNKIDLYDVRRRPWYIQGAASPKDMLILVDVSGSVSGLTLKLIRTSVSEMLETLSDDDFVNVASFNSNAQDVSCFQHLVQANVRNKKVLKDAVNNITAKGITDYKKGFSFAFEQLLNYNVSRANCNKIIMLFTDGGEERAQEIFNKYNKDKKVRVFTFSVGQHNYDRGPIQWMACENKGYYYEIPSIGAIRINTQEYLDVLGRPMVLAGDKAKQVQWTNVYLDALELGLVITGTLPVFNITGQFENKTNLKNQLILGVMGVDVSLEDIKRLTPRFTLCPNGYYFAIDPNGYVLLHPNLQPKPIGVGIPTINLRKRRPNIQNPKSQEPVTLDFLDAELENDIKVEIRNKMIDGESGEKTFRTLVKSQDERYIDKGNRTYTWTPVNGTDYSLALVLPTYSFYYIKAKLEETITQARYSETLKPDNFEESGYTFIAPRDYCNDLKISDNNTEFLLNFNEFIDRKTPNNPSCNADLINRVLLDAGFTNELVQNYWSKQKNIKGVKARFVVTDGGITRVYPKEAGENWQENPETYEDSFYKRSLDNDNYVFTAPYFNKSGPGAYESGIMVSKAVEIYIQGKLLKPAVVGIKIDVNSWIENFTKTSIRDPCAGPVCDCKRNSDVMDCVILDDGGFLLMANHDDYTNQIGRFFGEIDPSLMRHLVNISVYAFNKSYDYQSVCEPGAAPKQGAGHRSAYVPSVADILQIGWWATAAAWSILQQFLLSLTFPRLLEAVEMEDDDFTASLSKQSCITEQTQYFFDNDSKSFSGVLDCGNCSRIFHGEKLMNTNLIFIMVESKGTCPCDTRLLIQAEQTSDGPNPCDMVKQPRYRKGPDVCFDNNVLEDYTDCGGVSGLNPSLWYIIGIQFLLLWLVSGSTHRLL
Chain of N-type calcium channel (α1B (Cav2.2), β3 and α2δ subunits) in stable HEK cell line (Q00975 whole entry): as the sequence (Q00975 whole entry) above
Chain of N-type calcium channel (α1B (Cav2.2), β3 and α2δ subunits) in stable HEK cell line (P54284 whole entry partner): as the sequence (P54284 whole entry partner) above
Chain of N-type calcium channel (α1B (Cav2.2), β3 and α2δ subunits) in stable HEK cell line (P54289 25-1103 partner): as the sequence (P54289 25-1103 partner) above

With `COc1ccccc1-n1nc(OC2CCN(S(=O)(=O)C3CC3)CC2)cc1-c1ccc(Cl)cc1` [Compound 15, 4-{[5-(4-Chlorophenyl)-1-(2-methoxyphenyl)-1H-pyrazol-3-yl]oxy}-1-(cyclopropylsulfonyl)piperidine], the IC50 in assay [1] stood at 9 nM. The inhibition at 0.1 µM on N-type calcium channel (setting [2]) worked out at 55%; on N-type calcium channel (setting [3]), 25%.

As for `CC(C)Oc1ccccc1-n1nc(OC2CCN(S(C)(=O)=O)CC2)cc1-c1ccc(Cl)cc1` [Compound 20, 4-({5-(4-Chlorophenyl)-1-[2-(1-methylethoxy)phenyl]-1H-pyrazol-3-yl}oxy)-1-(methylsulfonyl)piperidine], the IC50 in assay [1] came to 21.5 nM. Also, the inhibition at 0.1 µM worked out at 37% on N-type calcium channel (setting [2]) and 24% on N-type calcium channel (setting [3]).

For `COc1ccccc1-n1nc(OC2CCN(S(=O)(=O)C(C)C)CC2)cc1-c1ccc(Cl)cc1` [Compound 21, 4-{[5-(4-Chlorophenyl)-1-(2-methoxyphenyl)-1H-pyrazol-3-yl]oxy}-1-[(1-methylethyl)sulfonyl]piperidine], the inhibition at 0.33 µM in assay [1] is 95%. Besides, the IC50 in assay [1] is 36 nM. Besides, the figures for the inhibition at 0.1 µM at N-type calcium channel (setting [2]) and at N-type calcium channel (setting [3]) were 23% and 15%, respectively.

`COc1ccccc1-n1nc(OC2CN(S(C)(=O)=O)C2)cc1-c1ccc(Cl)cc1` [Compound 26, 5-(4-Chlorophenyl)-1-(2-methoxyphenyl)-3-{[1-(methylsulfonyl)azetidin-3-yl]oxy}-1H-pyrazole]: in assay [1], the inhibition at 0.33 µM came to 91% and the IC50 stood at 31 nM. Moreover, on N-type calcium channel (setting [2]), the inhibition at 0.1 µM was found to be 40%. Moreover, the inhibition at 0.1 µM at N-type calcium channel (setting [3]) came out at 37%.

In the case of `COc1ccccc1-n1nc(OC2CN(C(=O)N(C)OC)C2)cc1-c1ccc(Cl)cc1` [Compound 29, 3-{[5-(4-Chlorophenyl)-1-(2-methoxyphenyl)-1H-pyrazol-3-yl]oxy}-N-methoxy-N-methylazetidine-1-carboxamide], in assay [1], the inhibition at 0.33 µM came to 94% and the IC50 was found to be 14 nM. Besides, the inhibition at 0.1 µM at N-type calcium channel (setting [2]) is 1%. Moreover, the inhibition at 0.1 µM at N-type calcium channel (setting [3]) was -24%.

`COc1ccccc1-n1nc(OC2CC(C)(C)SC(C)(C)C2)cc1-c1ccc(Cl)cc1` [Compound 36, 5-(4-Chlorophenyl)-1-(2-methoxyphenyl)-3-[(2,2,6,6-tetramethyltetrahydro-2H-thiopyran-4-yl)oxy]-1H-pyrazole]: in assay [1], the inhibition at 0.33 µM was found to be 91% and the IC50 is 5.9 nM.

For the compound `COc1ccccc1-n1nc(OC2CC(C)(C)S(=O)(=O)C(C)(C)C2)cc1-c1ccc(Cl)cc1` [Compound 37, 5-(4-Chlorophenyl)-1-(2-methoxyphenyl)-3-[(2,2,6,6-tetramethyl-1,1-dioxidotetrahydro-2H-thiopyran-4-yl)oxy]-1H-pyrazole], in assay [1], the inhibition at 0.33 µM was determined as 98% and the IC50 turned out to be 1.9 nM.

Take `COc1ccccc1-n1nc(O[C@H]2CC(C)(C)[S@+]([O-])C(C)(C)C2)cc1-c1ccc(Cl)cc1.O=C(O)C(F)(F)F` [Compound 38, (1r,4r)-4-((5-(4-chlorophenyl)-1-(2-methoxyphenyl)-1H-pyrazol-3-yl)oxy)-2,2,6,6-tetramethyltetrahydro-2H-thiopyran 1-oxide trifluoroacetate]: in assay [1], the “% Inhibition (%) at 0.33 μM” value was 98% and the IC50 was 2.7 nM.

`COc1ccccc1-n1nc(O[C@H]2CC(C)(C)[S@@+]([O-])C(C)(C)C2)cc1-c1ccc(Cl)cc1.O=C(O)C(F)(F)F` [Compound 39, (1 s,4s)-4-((5-(4-chlorophenyl)-1-(2-methoxyphenyl)-1H-pyrazol-3-yl)oxy)-2,2,6,6-tetramethyltetrahydro-2H-thiopyran 1-oxide trifluoroacetate]: in assay [1], the “% Inhibition (%) at 0.33 μM” value was 99% and the half-inhibitory concentration (IC50) turned out to be 1.5 nM.

Regarding `COc1ccccc1-n1nc(OCC2C(C)(C)OC2(C)C)cc1-c1ccc(Cl)cc1` [Compound 40], in assay [1], the inhibition at 0.33 µM came to 95% and the IC50 was 3.1 nM.

Regarding `COc1ccccc1-n1nc(OC2CC(C)(C)C(=O)C(C)(C)C2)cc1-c1ccc(Cl)cc1` [Compound 41, 4-{[5-(4-Chlorophenyl)-1-(2-methoxyphenyl)-1H-pyrazol-3-yl]oxy}-2,2,6,6-tetramethylcyclohexanone], in assay [1], the inhibition at 0.33 µM is 92%.

In the case of `COc1ccccc1-n1nc(OC2CC(C)(C)C(O)C(C)(C)C2)cc1-c1ccc(Cl)cc1` (stereo not drawn) [Compound 42, 4-{[5-(4-Chlorophenyl)-1-(2-methoxyphenyl)-1H-pyrazol-3-yl]oxy}-2,2,6,6-tetramethylcyclohexanol], in assay [1], the inhibition at 0.33 µM was 78% and the IC50 amounted to 39 nM.

On to `COc1ccccc1-n1nc(OC2CC(C)(C)OC(C)(C)C2)cc1-c1ccc(C#N)cc1` [Compound 43, 4-{1-(2-Methoxyphenyl)-3-[(2,2,6,6-tetramethyltetrahydro-2H-pyran-4-yl)oxy]-1H-pyrazol-5-yl}benzonitrile], for which, in assay [1], the inhibition at 0.33 µM was determined as 90% and the IC50 came out at 7.2 nM.

As to `COc1ccccc1-n1nc(OC2CC(C)(C)SC(C)(C)C2)cc1-c1ccc(C#N)cc1` [Compound 44, 4-{1-(2-Methoxyphenyl)-3-[(2,2,6,6-tetramethyltetrahydro-2H-thiopyran-4-yl)oxy]-1H-pyrazol-5-yl}benzonitrile], in assay [1], the inhibition at 0.33 µM was found to be 87% and the IC50 amounted to 12 nM.

Consider `COc1ccccc1-n1nc(OC2CC(C)(C)S(=O)(=O)C(C)(C)C2)cc1-c1ccc(C#N)cc1` [Compound 45, 4-{1-(2-Methoxyphenyl)-3-[(2,2,6,6-tetramethyl-1,1-dioxidotetrahydro-2H-thiopyran-4-yl)oxy]-1H-pyrazol-5-yl}benzonitrile], for which, in assay [1], the inhibition at 0.33 µM stood at 99% and the IC50 was found to be 2.4 nM.

With `COc1ccccc1-n1nc(O[C@H]2CC(C)(C)[S@+]([O-])C(C)(C)C2)cc1-c1ccc(C#N)cc1` [Compound 46], in assay [1], the “% Inhibition (%) at 0.33 μM” value is given as 90% and the IC50 worked out at 14 nM.

In general, IC50 refers to the midpoint of a concentration-inhibition curve. What is called inhibition is the relative decrease from the control value, in per cent.
